Test in all cases: DTP human tumour cell line panel, 48 h
In assay [1] the test system is BT-549 breast.
Assay [2] relates to CCRF-CEM leukemia.
The test system of assay [3] is HCT-116 colon.
Assay [4] relates to HOP-62 NSCLC.
Assay [5] has as its system LOX IMVI melanoma.
Assay [6] deals with NCI-H23 lung.
The test system of assay [7] is NCI-H460 lung.
Assay [8] has as its system SK-MEL-28 melanoma.
Assay [9] concerns U251 CNS.
Assay [10] has as its system NCI-H226 lung.

Broadly, the TGI is the concentration at which net growth stops. A high value points to less potent growth arrest. By GI50 is commonly meant the concentration at which growth is held to half of that of the control.

Structures are written as SMILES.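 These data come from cells grown in 96-well plates and exposed to compound for 48 hours at five concentrations. GI50 marks 50% less growth. Definition used: TGI = concentration required for complete inhibition of growth.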

Regarding `Oc1c(Cl)c(Cl)c(O)c2c1CCCC2`, the TGI worked out at 28.1 µM in [1]; 5.05 µM in assay [2]; 2.83 µM in [3]; 51.6 µM in assay [4]; 78.6 µM in [5]; 40.8 µM in assay [6]. Also, the values for the TGI in [7], in assay [8] and in assay [9] were 31.9 µM, 27.7 µM and 42.7 µM, respectively.
Consider `Nc1ccccc1C#C/C=C\C#Cc1cccc(O)c1`, for which the GI50 in assay [1] was 7.12 µM; in assay [2], 8.12 µM; in assay [3] it was 2.73 µM; in assay [4] it was 2.63 µM; in [5], 0.579 µM; in assay [10], 6.03 µM. In addition, the GI50 in [6] is 2.44 µM; in assay [7] it was 3.19 µM; in [8], 8.97 µM; in [9] it was 4.09 µM. The TGI in assay [1] was 25.8 µM; in [2], above 44 µM; in assay [3], 12.2 µM; in assay [4], 12.1 µM; in assay [5], 10.8 µM; in [10] it was 20.9 µM. The TGI is 9.38 µM in [6], above 34.2 µM in [7], 31.9 µM in [8] and 17.1 µM in assay [9].
With `Cc1ccc(C(=O)NC2CCC2)cc1-c1ccc(C(=O)NCC2CC2)cc1`, the GI50 in assay [1], in assay [2], in [3], in assay [4], in assay [5] and in assay [10] was above 25 µM throughout. Further, the GI50 in assay [6], in assay [7], in assay [8] and in [9] was above 25 µM throughout. In addition, the concentration for total growth inhibition (TGI) in assay [1], in assay [2], in [3], in [4], in assay [5] and in assay [10] was above 25 µM in each case. The TGI in assay [6], in assay [7], in assay [8] and in assay [9] was above 25 µM in each case.
Take `COC(=O)c1cc2ccccc2c2c3c(ccc12)OCO3`: the GI50 in assay [1] is 47.1 µM; in [3], 194 µM; in assay [4], 26.2 µM; in [5], 772 µM; in assay [10] it was 26.4 µM; in [6], 161 µM. In addition, the GI50 in [7] was 290 µM; in [8] it was 71.3 µM; in assay [9], 79.2 µM. The TGI in assay [1] was 482 µM; in assay [3] it was above 1000 µM; in assay [4] it was 91.7 µM; in assay [5], above 1000 µM; in assay [10], 146 µM; in assay [6] it was above 1000 µM. Further, the values for the TGI in [7], in [8] and in assay [9] were above 1000 µM, 328 µM and 924 µM, respectively.
On to `O=[N+]([O-])c1ccc(N=Nc2ccc(O)c3ccccc23)cc1`, for which the GI50 in assay [1] is 5.07 µM; in [2] it was 4.24 µM; in assay [3] it was 2.02 µM; in assay [4] it was 20.3 µM; in assay [5], 2.5 µM; in [10] it was 26.3 µM. The GI50 in assay [6] was 1.79 µM; in [7], 3.49 µM; in [8], 6.59 µM; in assay [9] it was 3.12 µM. The TGI in assay [1] is 46.7 µM; in [2], 35.7 µM; in [3] it was 13.8 µM; in assay [4], above 100 µM; in assay [5] it was 13.6 µM; in assay [10], above 100 µM. The TGI in [6] is 6.88 µM; in assay [7] it was 27.1 µM; in assay [8], above 100 µM; in assay [9], 25.8 µM.
With `CN(C)c1ccc(C(=NO)c2ccc(N(C)C)cc2)cc1`, the GI50 is 7.34 µM in assay [1]; 3.27 µM in [2]; 2.53 µM in [3]; 6.1 µM in assay [4]; 6.29 µM in assay [5]; 9.43 µM in assay [10]. The GI50 in [6] is 5.42 µM; in [7], 3.23 µM; in assay [8] it was 5.3 µM; in assay [9], 2.68 µM. Also, the TGI in assay [1], in assay [2], in assay [3], in assay [4], in assay [5] and in assay [10] was above 100 µM each time. Moreover, the TGI in assay [6], in assay [7], in assay [8] and in assay [9] was above 100 µM in each case.
On to `CCc1ccc2c(c1)C(=O)c1c-2n(CCCN=[N+]=[N-])c(=O)c2cc(OC)c(OC)cc12`, for which the GI50 in assay [1] is 76.5 µM; in assay [2], above 100 µM; in assay [4], 56.2 µM; in assay [5] it was above 100 µM; in [10], above 100 µM; in [6], above 100 µM. The GI50 in assay [7] was above 100 µM; in [8] it was above 100 µM; in assay [9], 47.1 µM. Moreover, the TGI in assay [1], in assay [2], in assay [4], in [5], in assay [10] and in assay [6] was above 100 µM throughout. Further, the concentration for total growth inhibition (TGI) in assay [7], in assay [8] and in assay [9] was above 100 µM throughout.
In the case of `Cc1nn(-c2ccc(Cl)cc2)c2nc3c(nc12)C(=O)C(=O)c1ccccc1-3`, the GI50 was 1.57 µM in [1]; 7.42 µM in [3]; 9.71 µM in [4]; 2.08 µM in assay [5]; 7.65 µM in [10]; 1.71 µM in assay [6]. For the same molecule, the GI50 in [8] is 7.76 µM; in [9] it was 3.21 µM. The concentration for total growth inhibition (TGI) in assay [1] was found to be 4.76 µM; in assay [3], 32.8 µM; in assay [4], 30.4 µM; in assay [5] it was 5.89 µM; in assay [10], 30.1 µM; in [6] it was 3.88 µM. In addition, the TGI in assay [8] is 74.8 µM; in assay [9], 10.1 µM.
For `C=C1CC[C@@H]2[C@](C)(COC(C)=O)[C@H](OC(C)=O)CC[C@@]2(C)[C@@H]1CC(Nc1ccc(S(=O)(=O)Nc2ccc(Cl)nn2)cc1)C1=CCOC1=O` (some centres not stated), the GI50 is 1.58 µM in assay [1]; 0.465 µM in assay [2]; 1.08 µM in [3]; 1.46 µM in assay [4]; 0.295 µM in [5]; 2.06 µM in assay [6]. The GI50 in assay [7] was 2.03 µM; in [8], 1.68 µM; in assay [9] it was 1.68 µM. The concentration for total growth inhibition (TGI) in [1] is 3.14 µM; in assay [2] it was 2.6 µM; in assay [3], 2.32 µM; in [4] it was 2.99 µM; in assay [5], 1.19 µM; in assay [6], 5.35 µM. Besides, the TGI stood at 4.31 µM in assay [7], 3.46 µM in [8] and 3.05 µM in assay [9].
For the molecule `Cc1[nH]c2ccc(F)cc2c1-c1nc2c3cccnc3c3ncccc3c2[nH]1`, the GI50 is 0.295 µM in assay [1]; 0.193 µM in assay [2]; 0.263 µM in [3]; 0.305 µM in [4]; 0.351 µM in assay [10]; 0.418 µM in [6]. The GI50 in assay [7] was 0.41 µM; in assay [8] it was 0.36 µM; in assay [9], 0.244 µM. Also, the TGI in assay [1], in assay [2], in [3], in assay [4], in assay [10] and in [6] was above 100 µM in each case. The TGI in assay [7], in [8] and in [9] was above 100 µM each time.
In the case of `CCOC(=O)C1CCCCN1C(=O)c1ccc(Nc2cnc3cc(C(F)(F)F)ccc3n2)cc1` (configuration not stated), the GI50 in assay [1] was 20.1 µM; in [3] it was 14.9 µM; in assay [4] it was 17.6 µM; in assay [5] it was 3.62 µM; in [10], 24.5 µM; in [6] it was 14.7 µM. For the same molecule, the results for the GI50 in [7] and in assay [9] were 13.3 µM and 11.3 µM, respectively. Further, the TGI in assay [1] is 38.7 µM; in assay [3], 28.1 µM; in [4] it was 32.5 µM; in assay [5], 16.4 µM; in assay [10], 45.6 µM; in assay [6], 28.6 µM. Besides, the TGI was 30.4 µM in [7] and 32.2 µM in assay [9].
As to `CC1=C(C(=O)N(C)c2ccc(Cl)c(C(=O)OC(C)C)c2)SCCO1`, the TGI in assay [1], in assay [2], in assay [3], in [5], in [10] and in [6] was above 100 µM throughout. In addition, the total growth inhibition concentration (TGI) in assay [7], in [8] and in assay [9] was above 100 µM in each case.
